Patent US9695155B2, “Herbicidal substituted pyrimidinyloxy benzene compounds” (E. I. DU PONT DE NEMOURS AND COMPANY, priority 2013, dated 2017)

Columns and labels:
sandbur [1] = test: Test E preemergence; type: in vivo, Cenchrus echinatus; settings: for Sandbur plant response rating: scale 0 to 100 (0 no effect, 100 complete control); for Plant response rating, Sandbur: scale 0 to 100, 0 no effect, 100 complete control
How it was run: (§1)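 Test chemicals formulated in a non-phytotoxic solvent mixture containing a surfactant were applied preemergence to seeds in silt loam soil or postemergence to plants at the 1- to 4-leaf stage in potting mix. After 14 to 21 days in a greenhouse, injury was visually rated against controls on a 0-100 scale (0 = no effect, 100 = complete control).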

[2] = test system: waterhemp_RES2 (ALS & HPPD resistant common waterhemp); test: Test E postemergence; type: in vivo, Amaranthus rudis; settings: Amaranthus tuberculatus, post-emergence, read-out: Plant response rating, Waterhemp_RES2
How it was run: as §1

waterhemp [3] = test: Test E postemergence; type: in vivo, Amaranthus rudis; settings: Amaranthus tuberculatus, post-emergence, read-out: Plant response rating, Waterhemp
How it was run: as §1

hairy beggarticks = test: Test E postemergence; type: in vivo, Bidens pilosa; settings: Bidens pilosa, post-emergence, read-out: Plant response rating, Beggarticks
How it was run: as §1

nightshade = test: Test E preemergence; type: in vivo, Solanum ptycanthum; settings: for Nightshade plant response rating: scale 0 to 100 (0 no effect, 100 complete control); for Plant response rating, Nightshade: scale 0 to 100, 0 no effect, 100 complete control
How it was run: as §1

waterhemp [4] = test: Test E preemergence; type: in vivo, Amaranthus rudis; settings: for Waterhemp plant response rating: scale 0 to 100 (0 no effect, 100 complete control); for Plant response rating, Waterhemp: scale 0 to 100, 0 no effect, 100 complete control
How it was run: as §1

arrowleaf sida = test: Test E postemergence; type: in vivo, Sida rhombifolia; settings: Sida rhombifolia, post-emergence, read-out: Plant response rating, Arrowleaf Sida
Text: Seeds of plant species selected from corn (Zea mays), soybean (Glycine max), velvetleaf (Abutilon theophrasti), lambsquarters (Chenopodium album), wild poinsettia (Euphorbia heterophylla), palmer pigweed (Amaranthus palmeri), waterhemp (common waterhemp, Amaranthus rudis), surinam grass (Brachiaria decumbens), large (Lg) crabgrass (Digitaria sanguinalis), Brazilian crabgrass (Digitaria horizontalis), fall panicum (Panicum dichotomiflorum), giant foxtail (Setaria faberii), green foxtail (Setaria viridis), goosegrass (Eleusine indica), johnsongrass (Sorghum halepense), ragweed (common ragweed, Ambrosia elatior), barnyardgrass (Echinochloa crus-galli), sandbur (southern sandbur, Cenchrus echinatus), arrowleaf sida (Sida rhombifolia), Italian ryegrass (Lolium multiflorum), dayflower (Virginia (VA) dayflower, Commelina virginica), field bindweed (Convolvulus arvensis), morningglory (Ipomoea coccinea), nightshade (eastern black nightshade, Solanum ptycanthum), kochia (Kochia scoparia), yellow nutsedge (Cyperus esculentus), cocklebur (common cocklebur, Xanthium strumarium), smartweed (ladysthumb smartweed, and hairy beggarticks (Bidens pilosa), were planted into a silt loam soil and treated preemergence with test chemicals formulated in a non-phytotoxic solvent mixture which included a surfactant.
At the same time, plants from these crop and weed species and also horseweed (Canada horseweed, Conyza canadensis), waterhemp_RES1, (ALS & Triazine resistant common waterhemp, Amaranthus rudis), and waterhemp_RES2, (ALS & HPPD resistant common waterhemp, Amaranthus rudis) were planted in pots containing Redi-Earth® planting medium (Scotts Company, 14111 Scottslawn Road, Marysville, Ohio 43041) comprising spaghnum peat moss, vermiculite, wetting agent and starter nutrients were treated with postemergence applications of test chemicals formulated in the same manner. Plants ranged in height from 2 to 18 cm for postemergence treatments (1- to 4-leaf stage). Treated plants and controls were maintained in a greenhouse for 14 to 21 days, after which time all species were compared to controls and visually evaluated. Plant response ratings, summarized in Table E, are based on a scale of 0 to 100 where 0 is no effect and 100 is complete control. A dash (-) response means no test result.

Italian ryegrass = test: Test E preemergence; type: in vivo, Lolium multiflorum; settings: for Ryegrass, Italian plant response rating: scale 0 to 100 (0 no effect, 100 complete control); for Plant response rating, Ryegrass, Italian: scale 0 to 100, 0 no effect, 100 complete control
How it was run: as §1

ragweed = test: Test E preemergence; type: in vivo, Ambrosia elatior; settings: for Ragweed plant response rating: scale 0 to 100 (0 no effect, 100 complete control); for Plant response rating, Ragweed: scale 0 to 100, 0 no effect, 100 complete control
How it was run: as §1

kochia = test: Test E preemergence; type: in vivo, Kochia scoparia; settings: for Kochia plant response rating: scale 0 to 100 (0 no effect, 100 complete control); for Plant response rating, Kochia: scale 0 to 100, 0 no effect, 100 complete control
How it was run: as §1

lambsquarters = test: Test E preemergence; type: in vivo, Chenopodium album; settings: for Lambsquarters plant response rating: scale 0 to 100 (0 no effect, 100 complete control); for Plant response rating, Lambsquarters: scale 0 to 100, 0 no effect, 100 complete control
How it was run: as §1

Brazilian crabgrass = test: Test E preemergence; type: in vivo, Digitaria horizontalis; settings: for Crabgrass, Brazil plant response rating: scale 0 to 100 (0 no effect, 100 complete control); for Plant response rating, Crabgrass, Brazil: scale 0 to 100, 0 no effect, 100 complete control
How it was run: as §1

sandbur [5] = test: Test E postemergence; type: in vivo, Cenchrus echinatus; settings: Cenchrus echinatus, post-emergence, read-out: Plant response rating, Sandbur
How it was run: as §1

large (Lg) crabgrass = test: Test E preemergence; type: in vivo, Digitaria sanguinalis; settings: for Crabgrass, Large plant response rating: scale 0 to 100 (0 no effect, 100 complete control); for Plant response rating, Crabgrass, Large: scale 0 to 100, 0 no effect, 100 complete control
How it was run: as §1

barnyardgrass = test: Test E preemergence; type: in vivo, Echinochloa crus-galli; settings: for Barnyardgrass plant response rating: scale 0 to 100 (0 no effect, 100 complete control); for Plant response rating, Barnyardgrass: scale 0 to 100, 0 no effect, 100 complete control
How it was run: as §1

[6] = Postemergence, 31 g ai/ha, scale 0 to 100
[7] = Postemergence, 62 g ai/ha, scale 0 to 100
[8] = Postemergence, 125 g ai/ha, scale 0 to 100
[9] = postemergence, 16 g ai/ha, scale 0 to 100, 0 no effect, 100 complete control

N#Cc1cccc(Oc2ncc(Cl)cn2)c1-n1cc(Br)cn1 [Compound 52, 2-(4-bromo-1H-pyrazol-1-yl)-3-[(5-chloro-2-pyrimidinyl)oxy]benzonitrile]
Sandbur plant response rating (sandbur [1]; 16 g ai/ha): 0
Sandbur plant response rating (sandbur [1]; 31 g ai/ha): 0
Sandbur plant response rating (sandbur [1]; 62 g ai/ha): 10
Plant response rating, Sandbur (sandbur [1]; 125 g ai/ha): 35
Plant response rating, Sandbur (sandbur [1]; 250 g ai/ha): 80
pest or weed control at 31 g/ha [2, 6]: 90%
pest or weed control at 62 g/ha [2, 7]: 95%
pest or weed control at 125 g/ha [2, 8]: 90%
pest or weed control at 16 g/ha [2, 9]: 80%
pest or weed control at 31 g/ha (waterhemp [3]; [6]): 70%
pest or weed control at 62 g/ha (waterhemp [3]; [7]): 75%
pest or weed control at 125 g/ha (waterhemp [3]; [8]): 95%
pest or weed control at 16 g/ha (waterhemp [3]; [9]): 65%
pest or weed control at 31 g/ha (hairy beggarticks; [6]): 60%
pest or weed control at 62 g/ha (hairy beggarticks; [7]): 70%
pest or weed control at 125 g/ha (hairy beggarticks; [8]): 75%
pest or weed control at 16 g/ha (hairy beggarticks; [9]): 30%
Nightshade plant response rating (nightshade; 16 g ai/ha): 0
Nightshade plant response rating (nightshade; 31 g ai/ha): 0
Nightshade plant response rating (nightshade; 62 g ai/ha): 75
Plant response rating, Nightshade (nightshade; 125 g ai/ha): 98
Plant response rating, Nightshade (nightshade; 250 g ai/ha): 100
Waterhemp plant response rating (waterhemp [4]; 16 g ai/ha): 80
Waterhemp plant response rating (waterhemp [4]; 31 g ai/ha): 100
Waterhemp plant response rating (waterhemp [4]; 62 g ai/ha): 100
Plant response rating, Waterhemp (waterhemp [4]; 125 g ai/ha): 100
Plant response rating, Waterhemp (waterhemp [4]; 250 g ai/ha): 100
pest or weed control at 31 g/ha (arrowleaf sida; [6]): 60%
pest or weed control at 62 g/ha (arrowleaf sida; [7]): 70%
pest or weed control at 125 g/ha (arrowleaf sida; [8]): 70%
pest or weed control at 16 g/ha (arrowleaf sida; [9]): 50%
Ryegrass, Italian plant response rating (Italian ryegrass; 16 g ai/ha): 0
Ryegrass, Italian plant response rating (Italian ryegrass; 31 g ai/ha): 0
Ryegrass, Italian plant response rating (Italian ryegrass; 62 g ai/ha): 0
Plant response rating, Ryegrass, Italian (Italian ryegrass; 125 g ai/ha): 60
Plant response rating, Ryegrass, Italian (Italian ryegrass; 250 g ai/ha): 90
Ragweed plant response rating (ragweed; 16 g ai/ha): 0
Ragweed plant response rating (ragweed; 31 g ai/ha): 0
Ragweed plant response rating (ragweed; 62 g ai/ha): 0
Plant response rating, Ragweed (ragweed; 125 g ai/ha): 5
Plant response rating, Ragweed (ragweed; 250 g ai/ha): 70
Kochia plant response rating (kochia; 31 g ai/ha): 25
Kochia plant response rating (kochia; 62 g ai/ha): 65
Plant response rating, Kochia (kochia; 125 g ai/ha): 100
Plant response rating, Kochia (kochia; 250 g ai/ha): 100
Lambsquarters plant response rating (lambsquarters; 16 g ai/ha): 0
Lambsquarters plant response rating (lambsquarters; 31 g ai/ha): 75
Lambsquarters plant response rating (lambsquarters; 62 g ai/ha): 98
Plant response rating, Lambsquarters (lambsquarters; 125 g ai/ha): 98
Plant response rating, Lambsquarters (lambsquarters; 250 g ai/ha): 100
Crabgrass, Brazil plant response rating (Brazilian crabgrass; 16 g ai/ha): 0
Crabgrass, Brazil plant response rating (Brazilian crabgrass; 31 g ai/ha): 90
Crabgrass, Brazil plant response rating (Brazilian crabgrass; 62 g ai/ha): 100
Plant response rating, Crabgrass, Brazil (Brazilian crabgrass; 125 g ai/ha): 100
Plant response rating, Crabgrass, Brazil (Brazilian crabgrass; 250 g ai/ha): 100
pest or weed control at 31 g/ha (sandbur [5]; [6]): 10%
pest or weed control at 62 g/ha (sandbur [5]; [7]): 25%
pest or weed control at 125 g/ha (sandbur [5]; [8]): 20%
pest or weed control at 16 g/ha (sandbur [5]; [9]): 15%
Crabgrass, Large plant response rating (large (Lg) crabgrass; 16 g ai/ha): 0
Crabgrass, Large plant response rating (large (Lg) crabgrass; 31 g ai/ha): 35
Crabgrass, Large plant response rating (large (Lg) crabgrass; 62 g ai/ha): 98
Plant response rating, Crabgrass, Large (large (Lg) crabgrass; 125 g ai/ha): 100
Plant response rating, Crabgrass, Large (large (Lg) crabgrass; 250 g ai/ha): 100
Barnyardgrass plant response rating (barnyardgrass; 16 g ai/ha, preemergence): 0
Barnyardgrass plant response rating (barnyardgrass; 31 g ai/ha, preemergence): 0
Plant response rating, Barnyardgrass (barnyardgrass; Preemergence, 62 g ai/ha): 30
Plant response rating, Barnyardgrass (barnyardgrass; preemergence, 125 g ai/ha): 75
Plant response rating, Barnyardgrass (barnyardgrass; preemergence, 250 g ai/ha): 98
